# Legend:
# [1] = biological target: ABL1(T315I)-phosphorylated (Homo sapiens (Human), UniProt P00519, T315I); test: KINOMEscan scanMAX; type: binding; conditions: 2000 nM; read-out: Percent Control
# [2] = biological target: ALK(L1196M) (Homo sapiens (Human), UniProt Q9UM73, L1196M); test: KINOMEscan scanMAX; type: binding; conditions: 2000 nM; read-out: Percent Control
# [3] = biological target: BRSK1 (Homo sapiens (Human), UniProt Q8TDC3); test: KINOMEscan scanMAX; type: binding; conditions: 2000 nM; read-out: Percent Control
# [4] = biological target: CDK4-cyclinD3 (Homo sapiens (Human), UniProt P11802); test: KINOMEscan scanMAX; type: binding; conditions: 2000 nM; read-out: Percent Control
# [5] = biological target: CDKL1 (Homo sapiens (Human), UniProt Q00532); test: KINOMEscan scanMAX; type: binding; conditions: 2000 nM; read-out: Percent Control
# [6] = biological target: CSK (Homo sapiens (Human), UniProt P41240); test: KINOMEscan scanMAX; type: binding; conditions: 2000 nM; read-out: Percent Control
# [7] = biological target: CSNK1G1 (Homo sapiens (Human), UniProt Q9HCP0); test: KINOMEscan scanMAX; type: binding; conditions: 2000 nM; read-out: Percent Control
# [8] = biological target: DAPK2 (Homo sapiens (Human), UniProt Q9UIK4); test: KINOMEscan scanMAX; type: binding; conditions: 2000 nM; read-out: Percent Control
# Sequence of DAPK2 (Q9UIK4 whole entry): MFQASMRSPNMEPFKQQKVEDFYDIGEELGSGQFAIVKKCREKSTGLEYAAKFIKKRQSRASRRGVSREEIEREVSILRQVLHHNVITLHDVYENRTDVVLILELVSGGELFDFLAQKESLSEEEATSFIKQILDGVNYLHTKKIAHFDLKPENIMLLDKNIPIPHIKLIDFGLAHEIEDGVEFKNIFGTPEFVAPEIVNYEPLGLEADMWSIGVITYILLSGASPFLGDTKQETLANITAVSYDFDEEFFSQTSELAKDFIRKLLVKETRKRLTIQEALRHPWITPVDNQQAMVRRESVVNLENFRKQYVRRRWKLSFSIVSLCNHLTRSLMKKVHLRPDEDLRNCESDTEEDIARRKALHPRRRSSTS
# [9] = biological target: DCAMKL3 (DCLK3) (Homo sapiens (Human), UniProt Q9C098); test: KINOMEscan scanMAX; type: binding; conditions: 2000 nM; read-out: Percent Control
# [10] = biological target: DYRK1B (Homo sapiens (Human), UniProt Q9Y463); test: KINOMEscan scanMAX; type: binding; conditions: 2000 nM; read-out: Percent Control
# Sequence of DYRK1B (Q9Y463 whole entry): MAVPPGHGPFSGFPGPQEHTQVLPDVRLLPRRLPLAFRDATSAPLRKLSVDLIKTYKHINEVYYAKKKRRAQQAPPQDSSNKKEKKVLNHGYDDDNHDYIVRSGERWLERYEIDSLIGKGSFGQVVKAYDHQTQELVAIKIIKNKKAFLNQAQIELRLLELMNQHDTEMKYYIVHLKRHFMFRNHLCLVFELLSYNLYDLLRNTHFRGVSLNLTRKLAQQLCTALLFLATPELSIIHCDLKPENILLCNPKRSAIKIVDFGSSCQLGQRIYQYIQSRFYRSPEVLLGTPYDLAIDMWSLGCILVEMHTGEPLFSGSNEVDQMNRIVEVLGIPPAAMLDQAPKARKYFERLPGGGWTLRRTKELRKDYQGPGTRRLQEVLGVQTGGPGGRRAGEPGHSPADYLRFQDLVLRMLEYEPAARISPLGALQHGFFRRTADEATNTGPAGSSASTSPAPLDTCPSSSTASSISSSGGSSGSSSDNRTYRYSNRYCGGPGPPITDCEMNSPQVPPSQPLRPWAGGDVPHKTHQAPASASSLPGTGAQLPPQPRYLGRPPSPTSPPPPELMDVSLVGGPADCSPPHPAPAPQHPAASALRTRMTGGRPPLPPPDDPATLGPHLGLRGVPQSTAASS
# [11] = biological target: EPHA7 (Homo sapiens (Human), UniProt Q15375); test: KINOMEscan scanMAX; type: binding; conditions: 2000 nM; read-out: Percent Control
# [12] = biological target: FLT3 (Homo sapiens (Human), UniProt P36888); test: KINOMEscan scanMAX; type: binding; conditions: 2000 nM; read-out: Percent Control
# [13] = biological target: IKK-epsilon (IKBKE) (Homo sapiens (Human), UniProt Q14164); test: KINOMEscan scanMAX; type: binding; conditions: 2000 nM; read-out: Percent Control
# [14] = biological target: KIT(V559D) (Homo sapiens (Human), UniProt P10721, V559D); test: KINOMEscan scanMAX; type: binding; conditions: 2000 nM; read-out: Percent Control
# [15] = biological target: LIMK2 (Homo sapiens (Human), UniProt P53671); test: KINOMEscan scanMAX; type: binding; conditions: 2000 nM; read-out: Percent Control
# [16] = biological target: MARK4 (Homo sapiens (Human), UniProt Q96L34); test: KINOMEscan scanMAX; type: binding; conditions: 2000 nM; read-out: Percent Control
# [17] = biological target: MEK2 (MAP2K2) (Homo sapiens (Human), UniProt P36507); test: KINOMEscan scanMAX; type: binding; conditions: 2000 nM; read-out: Percent Control
# [18] = biological target: MEK3 (MAP2K3) (Homo sapiens (Human), UniProt P46734); test: KINOMEscan scanMAX; type: binding; conditions: 2000 nM; read-out: Percent Control
# [19] = biological target: MTOR (Homo sapiens (Human), UniProt P42345); test: KINOMEscan scanMAX; type: binding; conditions: 2000 nM; read-out: Percent Control
# [20] = biological target: MYLK2 (Homo sapiens (Human), UniProt Q9H1R3); test: KINOMEscan scanMAX; type: binding; conditions: 2000 nM; read-out: Percent Control
# [21] = biological target: NEK2 (Homo sapiens (Human), UniProt P51955); test: KINOMEscan scanMAX; type: binding; conditions: 2000 nM; read-out: Percent Control
# [22] = biological target: NEK9 (Homo sapiens (Human), UniProt Q8TD19); test: KINOMEscan scanMAX; type: binding; conditions: 2000 nM; read-out: Percent Control
# Sequence of NEK9 (Q8TD19 whole entry): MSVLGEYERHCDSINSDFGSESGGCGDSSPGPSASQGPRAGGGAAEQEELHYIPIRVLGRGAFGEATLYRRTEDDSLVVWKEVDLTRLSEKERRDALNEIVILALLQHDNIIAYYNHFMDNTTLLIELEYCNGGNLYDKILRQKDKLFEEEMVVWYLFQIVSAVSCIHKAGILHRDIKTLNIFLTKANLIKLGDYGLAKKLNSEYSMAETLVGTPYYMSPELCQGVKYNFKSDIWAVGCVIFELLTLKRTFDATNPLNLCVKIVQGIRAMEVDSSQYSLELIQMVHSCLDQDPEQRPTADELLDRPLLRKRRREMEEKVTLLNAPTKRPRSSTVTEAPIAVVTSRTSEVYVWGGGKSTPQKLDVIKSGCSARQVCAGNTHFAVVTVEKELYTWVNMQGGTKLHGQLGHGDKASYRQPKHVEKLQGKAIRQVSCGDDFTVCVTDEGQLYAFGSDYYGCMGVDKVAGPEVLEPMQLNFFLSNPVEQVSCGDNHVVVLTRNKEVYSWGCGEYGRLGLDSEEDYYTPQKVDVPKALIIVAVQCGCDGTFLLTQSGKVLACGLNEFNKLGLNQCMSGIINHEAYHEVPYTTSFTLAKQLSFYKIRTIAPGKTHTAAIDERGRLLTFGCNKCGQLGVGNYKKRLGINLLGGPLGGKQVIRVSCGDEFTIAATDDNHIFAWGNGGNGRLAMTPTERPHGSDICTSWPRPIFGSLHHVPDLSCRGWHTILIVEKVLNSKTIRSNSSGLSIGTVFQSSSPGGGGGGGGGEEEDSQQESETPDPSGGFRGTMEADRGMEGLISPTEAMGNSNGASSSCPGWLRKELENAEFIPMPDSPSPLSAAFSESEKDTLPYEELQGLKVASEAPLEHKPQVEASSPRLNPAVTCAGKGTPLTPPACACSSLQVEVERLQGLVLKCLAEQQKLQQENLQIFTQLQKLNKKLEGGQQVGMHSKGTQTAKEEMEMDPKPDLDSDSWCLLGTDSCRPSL
# [23] = biological target: p38-alpha (MAPK14) (Homo sapiens (Human), UniProt Q16539); test: KINOMEscan scanMAX; type: binding; conditions: 2000 nM; read-out: Percent Control
# [24] = biological target: p38-delta (MAPK13) (Homo sapiens (Human), UniProt O15264); test: KINOMEscan scanMAX; type: binding; conditions: 2000 nM; read-out: Percent Control
# [25] = biological target: PIP5K1A (Homo sapiens (Human), UniProt Q99755); test: KINOMEscan scanMAX; type: binding; conditions: 2000 nM; read-out: Percent Control
# [26] = biological target: PIP5K2C (PIP4K2C) (Homo sapiens (Human), UniProt Q8TBX8); test: KINOMEscan scanMAX; type: binding; conditions: 2000 nM; read-out: Percent Control
# [27] = biological target: PRP4 (PRPF4B) (Homo sapiens (Human), UniProt Q13523); test: KINOMEscan scanMAX; type: binding; conditions: 2000 nM; read-out: Percent Control
# Sequence of PRP4 (PRPF4B) (Q13523 whole entry, looked up): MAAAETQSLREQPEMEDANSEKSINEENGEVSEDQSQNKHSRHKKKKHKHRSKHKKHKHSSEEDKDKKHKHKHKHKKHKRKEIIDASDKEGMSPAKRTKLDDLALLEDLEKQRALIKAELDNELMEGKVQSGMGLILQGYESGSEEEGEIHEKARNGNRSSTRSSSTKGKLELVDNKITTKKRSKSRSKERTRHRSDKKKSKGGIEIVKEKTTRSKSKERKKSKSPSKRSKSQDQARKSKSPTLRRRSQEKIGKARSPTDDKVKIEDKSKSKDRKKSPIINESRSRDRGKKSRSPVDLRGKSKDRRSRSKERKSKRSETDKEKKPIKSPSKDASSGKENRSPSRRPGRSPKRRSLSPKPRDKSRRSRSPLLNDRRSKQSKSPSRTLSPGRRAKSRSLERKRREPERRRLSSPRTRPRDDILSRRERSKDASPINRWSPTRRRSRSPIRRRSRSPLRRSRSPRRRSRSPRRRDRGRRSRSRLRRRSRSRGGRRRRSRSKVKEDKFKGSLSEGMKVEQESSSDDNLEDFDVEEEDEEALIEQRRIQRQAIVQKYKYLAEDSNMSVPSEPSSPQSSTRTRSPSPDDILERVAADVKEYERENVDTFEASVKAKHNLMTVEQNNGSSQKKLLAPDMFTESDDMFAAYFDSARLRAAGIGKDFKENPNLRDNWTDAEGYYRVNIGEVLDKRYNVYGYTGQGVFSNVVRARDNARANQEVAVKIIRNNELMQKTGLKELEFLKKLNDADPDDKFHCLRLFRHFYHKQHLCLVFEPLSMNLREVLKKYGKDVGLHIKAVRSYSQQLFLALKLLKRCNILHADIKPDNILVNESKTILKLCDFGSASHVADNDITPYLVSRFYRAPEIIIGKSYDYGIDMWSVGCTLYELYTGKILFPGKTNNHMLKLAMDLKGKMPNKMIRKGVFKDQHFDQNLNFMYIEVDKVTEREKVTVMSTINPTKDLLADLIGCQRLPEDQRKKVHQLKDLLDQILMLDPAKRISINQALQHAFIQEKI
# [28] = biological target: RAF1 (Homo sapiens (Human), UniProt P04049); test: KINOMEscan scanMAX; type: binding; conditions: 2000 nM; read-out: Percent Control
# [29] = biological target: RIOK3 (Homo sapiens (Human), UniProt O14730); test: KINOMEscan scanMAX; type: binding; conditions: 2000 nM; read-out: Percent Control
# [30] = biological target: RPS6KA4(Kin.Dom.1-N-terminal) (Homo sapiens (Human), UniProt O75676); test: KINOMEscan scanMAX; type: binding; conditions: 2000 nM; read-out: Percent Control
# Sequence of RPS6KA4(Kin.Dom.1-N-terminal) (O75676 33-301): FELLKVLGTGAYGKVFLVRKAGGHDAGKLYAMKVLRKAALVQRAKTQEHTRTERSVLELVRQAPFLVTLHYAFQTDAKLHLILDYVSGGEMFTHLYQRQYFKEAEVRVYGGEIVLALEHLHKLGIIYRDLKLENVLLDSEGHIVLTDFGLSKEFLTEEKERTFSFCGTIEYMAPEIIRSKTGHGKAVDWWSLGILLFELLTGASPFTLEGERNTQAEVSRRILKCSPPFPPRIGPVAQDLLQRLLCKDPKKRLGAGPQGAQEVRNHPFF
# [31] = biological target: RSK2(Kin.Dom.2-C-terminal) (RPS6KA3) (Homo sapiens (Human), UniProt P51812); test: KINOMEscan scanMAX; type: binding; conditions: 2000 nM; read-out: Percent Control
# [32] = biological target: TNIK (Homo sapiens (Human), UniProt Q9UKE5); test: KINOMEscan scanMAX; type: binding; conditions: 2000 nM; read-out: Percent Control
# [33] = biological target: VPS34 (PIK3C3) (Homo sapiens (Human), UniProt Q8NEB9); test: KINOMEscan scanMAX; type: binding; conditions: 2000 nM; read-out: Percent Control
# [34] = biological target: WNK3 (Homo sapiens (Human), UniProt Q9BYP7); test: KINOMEscan scanMAX; type: binding; conditions: 2000 nM; read-out: Percent Control
# Sequence of WNK3 (Q9BYP7 whole entry): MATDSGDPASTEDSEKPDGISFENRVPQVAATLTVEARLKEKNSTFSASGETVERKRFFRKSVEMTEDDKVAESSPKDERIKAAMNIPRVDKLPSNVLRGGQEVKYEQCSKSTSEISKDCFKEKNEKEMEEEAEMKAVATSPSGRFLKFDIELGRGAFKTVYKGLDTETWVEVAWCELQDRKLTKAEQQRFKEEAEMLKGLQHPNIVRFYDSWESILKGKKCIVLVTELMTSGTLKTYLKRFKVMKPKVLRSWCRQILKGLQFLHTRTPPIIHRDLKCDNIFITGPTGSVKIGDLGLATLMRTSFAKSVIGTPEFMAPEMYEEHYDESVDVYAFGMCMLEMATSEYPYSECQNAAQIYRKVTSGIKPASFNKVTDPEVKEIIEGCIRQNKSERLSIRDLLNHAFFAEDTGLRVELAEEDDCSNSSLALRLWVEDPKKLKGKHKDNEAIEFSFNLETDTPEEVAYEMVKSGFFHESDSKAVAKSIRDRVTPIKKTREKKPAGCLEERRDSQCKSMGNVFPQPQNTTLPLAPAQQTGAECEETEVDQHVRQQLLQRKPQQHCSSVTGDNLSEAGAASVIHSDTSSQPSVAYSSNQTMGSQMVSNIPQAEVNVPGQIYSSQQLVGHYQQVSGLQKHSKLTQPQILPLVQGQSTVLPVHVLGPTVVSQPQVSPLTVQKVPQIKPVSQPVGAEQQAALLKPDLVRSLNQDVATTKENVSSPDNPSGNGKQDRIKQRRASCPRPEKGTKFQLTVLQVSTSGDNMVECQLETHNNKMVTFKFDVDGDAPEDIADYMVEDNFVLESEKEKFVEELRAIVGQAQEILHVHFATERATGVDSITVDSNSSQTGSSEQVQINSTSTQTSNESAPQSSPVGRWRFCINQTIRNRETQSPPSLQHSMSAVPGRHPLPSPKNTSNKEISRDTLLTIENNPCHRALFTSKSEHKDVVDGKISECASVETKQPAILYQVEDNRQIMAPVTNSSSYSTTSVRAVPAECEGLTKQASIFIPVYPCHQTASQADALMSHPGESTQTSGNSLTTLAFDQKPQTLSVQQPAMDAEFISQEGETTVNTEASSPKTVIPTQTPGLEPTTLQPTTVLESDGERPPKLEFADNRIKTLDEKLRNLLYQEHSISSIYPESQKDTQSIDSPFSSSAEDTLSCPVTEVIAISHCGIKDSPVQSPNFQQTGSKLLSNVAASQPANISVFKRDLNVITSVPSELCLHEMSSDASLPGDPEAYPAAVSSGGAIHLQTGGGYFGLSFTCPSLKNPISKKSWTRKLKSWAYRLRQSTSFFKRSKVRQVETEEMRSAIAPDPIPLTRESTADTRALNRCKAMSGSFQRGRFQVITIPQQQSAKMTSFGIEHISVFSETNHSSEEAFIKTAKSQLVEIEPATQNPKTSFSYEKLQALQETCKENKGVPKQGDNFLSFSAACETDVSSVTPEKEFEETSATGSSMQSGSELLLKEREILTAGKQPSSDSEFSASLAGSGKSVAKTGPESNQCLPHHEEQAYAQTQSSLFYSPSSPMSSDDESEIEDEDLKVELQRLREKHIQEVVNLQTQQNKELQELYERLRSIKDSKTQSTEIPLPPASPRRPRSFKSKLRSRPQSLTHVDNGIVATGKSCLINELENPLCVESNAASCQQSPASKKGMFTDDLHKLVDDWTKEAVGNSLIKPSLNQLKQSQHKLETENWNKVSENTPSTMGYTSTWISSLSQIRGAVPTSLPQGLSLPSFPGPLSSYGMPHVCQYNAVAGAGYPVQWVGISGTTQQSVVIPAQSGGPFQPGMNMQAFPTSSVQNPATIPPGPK
# [35] = biological target: YSK4 (MAP3K19) (Homo sapiens (Human), UniProt Q56UN5); test: KINOMEscan scanMAX; type: binding; conditions: 2000 nM; read-out: Percent Control
# [36] = biological target: ZAK (Homo sapiens (Human), UniProt Q9NYL2); test: KINOMEscan scanMAX; type: binding; conditions: 2000 nM; read-out: Percent Control
# [37] = Serum and tumor PK at study endpoint, C4-2 xenografts; type: in vivo, mice; conditions: 6-7 hours post last dose, 40 mg/kg orally daily for 4 days
# Method: CDK8/19 inhibition decreases the expression of certain androgen-receptor (AR) inducible genes including PSA, the most common marker of prostate cancer, and the growth of castration-refractory prostate cancers (CRPC). The in vivo effects of Senexin C on PSA expression by C4-2 cells were analyzed after treatment of male NcrNU mice bearing C4-2 xenografts (grouped based on tumor sizes) for 4 days at 40 mg/kg administered orally daily.
smiles,measurement,setting,value
"CN1CCN(C(=O)c2ccc3cc(CCNc4ccnc5ccc(C#N)cc45)ccc3c2)CC1 [compound 6148, 4-((2-(6-(4-methylpiperazine-1-carbonyl)naphthalen-2-yl)ethyl)amino)quinoline-6-carbonitrile]",remaining binding at 2 µM,[1],76%
same,remaining binding at 2 µM,[2],92%
same,remaining binding at 2 µM,[3],100%
same,remaining binding at 2 µM,[4],80%
same,remaining binding at 2 µM,[5],94%
same,remaining binding at 2 µM,[6],85%
same,remaining binding at 2 µM,[7],100%
same,remaining binding at 2 µM,[8],100%
same,remaining binding at 2 µM,[9],96%
same,remaining binding at 2 µM,[10],83%
same,remaining binding at 2 µM,[11],91%
same,remaining binding at 2 µM,[12],89%
same,remaining binding at 2 µM,[13],91%
same,remaining binding at 2 µM,[14],95%
same,remaining binding at 2 µM,[15],93%
same,remaining binding at 2 µM,[16],78%
same,remaining binding at 2 µM,[17],64%
same,remaining binding at 2 µM,[18],87%
same,remaining binding at 2 µM,[19],79%
same,remaining binding at 2 µM,[20],91%
same,remaining binding at 2 µM,[21],100%
same,remaining binding at 2 µM,[22],97%
same,remaining binding at 2 µM,[23],84%
same,remaining binding at 2 µM,[24],97%
same,remaining binding at 2 µM,[25],84%
same,remaining binding at 2 µM,[26],84%
same,remaining binding at 2 µM,[27],71%
same,remaining binding at 2 µM,[28],98%
same,remaining binding at 2 µM,[29],85%
same,remaining binding at 2 µM,[30],100%
same,remaining binding at 2 µM,[31],65%
same,remaining binding at 2 µM,[32],89%
same,remaining binding at 2 µM,[33],68%
same,remaining binding at 2 µM,[34],75%
same,remaining binding at 2 µM,[35],50%
same,remaining binding at 2 µM,[36],94%
same,Drug concentration in tumor tissues vs serum,[37],higher Senexin C drug concentration in tumor tissues

# Source: US12281080B2, “Quinoline-based compounds and methods of inhibiting CDK8/19” (University of South Carolina, priority 2018, dated 2025)
